Experimental data as given in US20260232767A1, “INTERLEUKIN-23 RECEPTOR ANTAGONIST PEPTIDES FOR USE IN THE TREATMENT OF PSORIASIS” (Janssen Pharmaceutica NV, priority 2023, published 2026).

System: subjects with moderate-to-severe plaque psoriasis
Assay: Safety, adverse events, Example 2 through Week 56
Assay type: in vivo, human
Text: The LTE safety analysis was based on randomized participants in Example who entered the present long-term extension study and received at least one dose of study intervention (including a partial dose) during the study period.

[1] = Placebo → 100 mg QD after crossover, through Week 56
[2] = Placebo → 100 mg QD, Week 16 through Week 56
[3] = Placebo → 100 mg QD, LTE Safety analysis set

CC(=O)NCCCC[C@@H]1NC(=O)[C@H](Cc2c[nH]c3c(C)cccc23)NC(=O)[C@H]([C@@H](C)O)NC(=O)[C@H](CC(N)=O)NC(=O)[C@@H](NC(C)=O)C(C)(C)SSC(C)(C)[C@@H](C(=O)N[C@@H](Cc2ccc(OCCN)cc2)C(=O)N[C@@H](Cc2ccc3ccccc3c2)C(=O)NC2(C(=O)N[C@@H](CCC(=O)O)C(=O)N[C@@H](CC(N)=O)C(=O)N[C@@H](Cc3cccnc3)C(=O)N(C)CC(N)=O)CCOCC2)NC1=O [IL-23 receptor antagonist peptide, Ac-[Pen]*-N-T-[W(7-Me)]-[Lys(Ac)]-[Pen]*-Phe[4-(2-aminoethoxy)]-[2-Nal]-[THP]-E-N-[3-Pal]-Sarc-NH2 (*[Pen]-[Pen]* formdisulfidebond)]
Seasonal allergy: number of subjects (Combined, through Week 56): 2
Skin and subcutaneous tissue disorders: % of subjects (Combined, through Week 56): (6.5%)
Skin and subcutaneous tissue disorders: number of subjects (Combined, through Week 56): 16
Skin laceration: % of subjects (Combined, through Week 56): (0.4%)
Skin laceration: number of subjects (Combined, through Week 56): 1
Skin papilloma: % of subjects (Combined, through Week 56): (0.8%)
Skin papilloma: number of subjects (Combined, through Week 56): 2
Social circumstances: % of subjects (Combined, through Week 56): (0.4%)
Social circumstances: number of subjects (Combined, through Week 56): 1
Steatohepatitis: % of subjects (Combined, through Week 56): (0.4%)
Steatohepatitis: number of subjects (Combined, through Week 56): 1
Suicide attempt: % of subjects (Combined, through Week 56): (0.4%)
Suicide attempt: number of subjects (Combined, through Week 56): 1
Sunburn: % of subjects (Combined, through Week 56): (0.4%)
Sunburn: number of subjects (Combined, through Week 56): 1
Thrombocytopenia: % of subjects (Combined, through Week 56): (0.4%)
Thrombocytopenia: number of subjects (Combined, through Week 56): 1
Thrombocytosis: % of subjects (Combined, through Week 56): (0.4%)
Thrombocytosis: number of subjects (Combined, through Week 56): 1
Tonsillar hypertrophy: % of subjects (Combined, through Week 56): (0.4%)
Tonsillar hypertrophy: number of subjects (Combined, through Week 56): 1
Tooth fracture: % of subjects (Combined, through Week 56): (0.4%)
Tooth fracture: number of subjects (Combined, through Week 56): 1
Type 2 diabetes mellitus: % of subjects (Combined, through Week 56): (0.4%)
Type 2 diabetes mellitus: number of subjects (Combined, through Week 56): 1
Urinary tract disorder: % of subjects (Combined, through Week 56): (0.4%)
Urinary tract disorder: number of subjects (Combined, through Week 56): 1
Uterine leiomyoma: % of subjects (Combined, through Week 56): (0.4%)
Uterine leiomyoma: number of subjects (Combined, through Week 56): 1
Vascular disorders: % of subjects (Combined, through Week 56): (2.8%)
Vascular disorders: number of subjects (Combined, through Week 56): 7
Ventricular dysfunction: % of subjects (Combined, through Week 56): (0.4%)
Ventricular dysfunction: number of subjects (Combined, through Week 56): 1
Vertigo: % of subjects (Combined, through Week 56): (0.8%)
Vertigo: number of subjects (Combined, through Week 56): 2
Vitamin D deficiency: % of subjects (Combined, through Week 56): (0.4%)
Vitamin D deficiency: number of subjects (Combined, through Week 56): 1
Deaths (LTE study period): no deaths
Subjects with 1 or more treatment-emergent adverse events leading to discontinuation of study agent [1]: 0
Subjects with AE leading to discontinuation: Abdominal discomfort [1]: 0
Subjects with AE leading to discontinuation: Abdominal pain [1]: 0
Subjects with AE leading to discontinuation: Alanine aminotransferase increased [1]: 0
Subjects with AE leading to discontinuation: Aspartate aminotransferase increased [1]: 0
Subjects with AE leading to discontinuation: Asthenia [1]: 0
Subjects with AE leading to discontinuation: Chills [1]: 0
Subjects with AE leading to discontinuation: Ear and labyrinth disorders [1]: 0
Subjects with AE leading to discontinuation: Gamma-glutamyltransferase increased [1]: 0
Subjects with AE leading to discontinuation: Gastrointestinal disorders [1]: 0
Subjects with AE leading to discontinuation: General disorders and administration site conditions [1]: 0
Subjects with AE leading to discontinuation: Headache [1]: 0
Subjects with AE leading to discontinuation: Insomnia [1]: 0
Subjects with AE leading to discontinuation: Investigations [1]: 0
Subjects with AE leading to discontinuation: Nausea [1]: 0
Subjects with AE leading to discontinuation: Nervous system disorders [1]: 0
Subjects with AE leading to discontinuation: Proctalgia [1]: 0
Subjects with AE leading to discontinuation: Psoriasis [1]: 0
Subjects with AE leading to discontinuation: Psychiatric disorders [1]: 0
Subjects with AE leading to discontinuation: Skin and subcutaneous tissue disorders [1]: 0
Subjects with AE leading to discontinuation: Suicide attempt [1]: 0
Subjects with AE leading to discontinuation: Transaminases increased [1]: 0
Subjects with AE leading to discontinuation: Vertigo [1]: 0
Subjects with AE leading to discontinuation: Vomiting [1]: 0
Subjects with AE leading to discontinuation: Weight increased [1]: 0
Subjects with treatment-emergent AE: Cough [1]: 0
Subjects with treatment-emergent AE: Headache [1]: 0
Subjects with treatment-emergent AE: Nasopharyngitis [1]: 9
Subjects with treatment-emergent serious AE: COVID-19 [1]: 0
Subjects with treatment-emergent serious AE: Cardiac disorders [1]: 0
Subjects with treatment-emergent serious AE: Coronary artery disease [1]: 0
Subjects with treatment-emergent serious AE: Diverticulitis [1]: 0
Subjects with treatment-emergent serious AE: Foot deformity [1]: 0
Subjects with treatment-emergent serious AE: General disorders and administration site conditions [1]: 0
Subjects with treatment-emergent serious AE: Infected cyst [1]: 0
Subjects with treatment-emergent serious AE: Infections and infestations [1]: 0
Subjects with treatment-emergent serious AE: Injury, poisoning and procedural complications [1]: 0
Subjects with treatment-emergent serious AE: Intervertebral disc protrusion [1]: 0
Subjects with treatment-emergent serious AE: Ligament injury [1]: 0
Subjects with treatment-emergent serious AE: Musculoskeletal and connective tissue disorders [1]: 0
Subjects with treatment-emergent serious AE: Neoplasms benign, malignant and unspecified (incl cysts and polyps) [1]: 0
Subjects with treatment-emergent serious AE: Non-cardiac chest pain [1]: 0
Subjects with treatment-emergent serious AE: Psychiatric disorders [1]: 0
Subjects with treatment-emergent serious AE: Respiratory, thoracic and mediastinal disorders [1]: 0
Subjects with treatment-emergent serious AE: Suicide attempt [1]: 0
Subjects with treatment-emergent serious AE: Tonsillar hypertrophy [1]: 0
Subjects with treatment-emergent serious AE: Uterine leiomyoma [1]: 0
Subjects with treatment-emergent serious AE: Ventricular dysfunction [1]: 0
Number of subjects with treatment-emergent AE: Cholelithiasis [2]: 0
Number of subjects with treatment-emergent AE: Ear and labyrinth disorders [2]: 0
Number of subjects with treatment-emergent AE: Endocrine disorders [2]: 0
Number of subjects with treatment-emergent AE: Eye disorders [2]: 2
Number of subjects with treatment-emergent AE: Eyelid skin dryness [2]: 0
Number of subjects with treatment-emergent AE: Goiter [2]: 0
Number of subjects with treatment-emergent AE: Hepatobiliary disorders [2]: 1
Number of subjects with treatment-emergent AE: Hypertransaminasemia [2]: 1
Number of subjects with treatment-emergent AE: Immune system disorders [2]: 0
Number of subjects with treatment-emergent AE: Insomnia [2]: 0
Number of subjects with treatment-emergent AE: Ocular cyst [2]: 1
Number of subjects with treatment-emergent AE: Psychiatric disorders [2]: 0
Number of subjects with treatment-emergent AE: Retinal vein occlusion [2]: 1
Number of subjects with treatment-emergent AE: Seasonal allergy [2]: 0
Number of subjects with treatment-emergent AE: Vertigo [2]: 0
Subjects with treatment-emergent AE: Eye disorders (%) [2]: (5.7%)
Subjects with treatment-emergent AE: Hepatobiliary disorders (%) [2]: (2.9%)
Subjects with treatment-emergent AE: Hypertransaminasemia (%) [2]: (2.9%)
Subjects with treatment-emergent AE: Ocular cyst (%) [2]: (2.9%)
Subjects with treatment-emergent AE: Retinal vein occlusion (%) [2]: (2.9%)
Subjects who discontinued study agent because of 1 or more adverse events [3]: 0
Subjects with 1 or more Serious Infections and infestations [3]: 0
Subjects with adverse event: Headache [3]: 0
Subjects with adverse event: Meniscus injury [3]: 0
Subjects with adverse event: Nasopharyngitis [3]: 9
Subjects with adverse event: Sinusitis [3]: 0
Subjects with adverse event: Vomiting [3]: 0
Subjects with serious adverse event: Coronary artery disease [3]: 0
Subjects with serious adverse event: Diverticulitis [3]: 0
Subjects with serious adverse event: Foot deformity [3]: 0
Subjects with serious adverse event: Intervertebral disc protrusion [3]: 0
Subjects with serious adverse event: Ligament injury [3]: 0
Subjects with serious adverse event: Non-cardiac chest pain [3]: 0
Subjects with serious adverse event: Tonsillar hypertrophy [3]: 0
Subjects with serious adverse event: Uterine leiomyoma [3]: 0
